Measured values published in patent publication US20030181401A1, “Insulin secretion promoter” (KYOWA HAKKO KOGYO CO., LTD., priority 2002, published 2003).

Tests used:
Assay type in all cases: in vivo
[1] = system: db/db mice; assay: Test Example 5: serum insulin in glucose tolerance test after 7-day oral dosing of saccharides; conditions: for insulin concentration during glucose loading compared with the control group (in words): continuous daily oral dosing; for Serum insulin concentration after glucose loading, 30 minutes / Serum insulin concentration after glucose loading, 120 minutes / Serum insulin concentration after glucose loading, Zero minute: oral 200 + 300 mg/kg daily, 7 days, glucose 2 g/kg oral, mean ± SD
Method: (§1) Groups of male 9-week-old db/db mice (Clea Japan, Inc.) each consisting of 6 mice were fed CE-2 (Clea Japan, Inc.) for one week, so as to accustom the animals to the environment.
After acclimation, individual aqueous 10% solutions of lacto-N-neotetraose (abbreviated as “LNnT” hereinafter) and NeuAc were orally administered to the mice at 200 mg (saccharide)/kg body weight in the morning and at 300 mg (saccharide)/kg body weight in the evening. The same volume of saline was administered to the control group. The individual aqueous saccharide solutions and saline were both dosed daily to the mice for 7 days. During the dosing period, CE-2 was given together with drinking water ad libitum.
(§2) After 18-hour starvation from the final dosing on day 7, an aqueous 40% glucose solution was orally administered to 2 g (glucose)/kg body weight to the mice, to perform glucose tolerance test. Zero minute and 30 minutes after glucose loading, blood was taken from a tail vein. […] Blood was centrifuged (4° C., 10000 rpm, 10 minutes), to obtain serum.
(§3) Insulin in the serum recovered was assayed by enzyme immunoassay using Lebis Insulin kit (for rats-T) (Shibayagi, Co., Ltd.) in the same manner as in the Test Example 1.

[2] = system: db/db mice; assay: Test Example 4: serum insulin in glucose tolerance test after 7-day oral dosing of saccharides; conditions: for serum insulin concentration during glucose loading compared with the control group (in words): continuous daily oral dosing; for Serum insulin concentration after glucose loading, 30 minutes / Serum insulin concentration after glucose loading, 120 minutes / Serum insulin concentration after glucose loading, Zero minute: oral 200 + 300 mg/kg daily, 7 days, glucose 2 g/kg oral, mean ± SD
Method: as §1
After acclimation, individual aqueous 10% solutions of 3′-sialyllactose (abbreviated as “3′-SL” hereinafter), 6′-sialylactose (abbreviated as “6′-SL”) and 2′-FL were orally administered to the mice at 200 mg (saccharide)/kg body weight in the morning and at 300 mg (saccharide)/kg body weight in the evening. The both volume of saline was administered to the control group. The individual aqueous saccharide solutions and saline were both dosed daily to the mice for 7 days. During the dosing period, CE-2 was given together with drinking water ad libitum.
as §2, §3

[3] = system: db/db mice; assay: Test Example 3: serum insulin on day 8 after 7-day oral dosing of saccharides; conditions: for serum insulin concentration compared with the control group (in words): continuous daily oral dosing; for Serum insulin concentration after dosing of the individual saccharides: oral 200 + 300 mg/kg daily, 7 days, blood on day 8, no glucose loading, mean ± SD
Method: Group of male 9-week-old db/db mice (Clea Japan, Inc.) each consisting of 6 mice were fed CE-2 (Clea Japan, Inc.) for one week, so as to accustom the animals to the environment.
After acclimation, individual aqueous 10% solutions of globotriose (abbreviated “globo” hereinafter), N-acetyllactosamine (abbreviated as “LacNac” hereinafter) and N-acetylneuraminic acid (abbreviated as “NeuAc” hereinafter) were orally administered to the mice at 200 mg (saccharide)/kg body weight in the morning and at 300 mg (saccharide)/kg body weight in the evening.
The same volume of saline was administered to the control group. The individual aqueous saccharide solutions and saline were both dosed daily to the mice for 7 days. During the dosing period, CE-2 was given together with drinking water ad libitum.
Blood was centrifuged (4° C., 10000 rpm, 10 minutes), to obtain serum.
as §3

[4] = system: ICR mice; assay: Test Example 6: serum glucose after intravenous saccharide with simultaneous oral glucose loading
Method: (§4) Groups of male 9-week-old ICR mice (Japan SLC, Inc.) each consisting of 7 mice were fed CE-2 (Clea Japan, Inc.) for one week, so as to accustom the animals to the environment. Then, the mice were fasted for 18 hours.
(§5) An aqueous 10% solution of 2′-FL or NeuAc was intravenously administered to the mice to 500 mg (saccharide)/kg body weight, while an aqueous 40% glucose solution was orally administered simultaneously to 2 g (glucose)/kg body weight, to the mice. To the control group, physiological saline was administered intravenously, while glucose was orally administered simultaneously to 2 g/kg body weight. Zero minute and 30 minutes after glucose loading, blood was taken from a tail vein. […] Blood was centrifuged (4° C., 10000 rpm, 10 minutes), to obtain serum.
Furthermore, the glucose concentration in the serum recovered was also assayed. The glucose concentration was assayed, using Glucose CII-TEST WAKO (WAKO Pure Chemical Industries, Ltd.). 2 μl of the recovered serum was placed in a 96-well plate, followed by addition of 200 μl of the chromogenic solution attached to the kit, for incubation at 37° C. for 10 minutes. After incubation, the absorbance at 490 nm was assayed with a plate reader. Herein, a standard curve was prepared by using aqueous 500 mg/dl glucose solution as the standard solution to dilute the standard solution appropriately for the same reaction as for the serum, and plotting the relation between the concentration and the absorbance (490 nm). Based on the prepared standard curve and the absorbance from the reaction with the serum, the glucose concentration in the serum was determined.

[5] = system: ICR mice; assay: Test Example 6: serum insulin after intravenous saccharide with simultaneous oral glucose loading
Method: as §4, §5
Insulin in the serum recovered was assayed by enzyme immunoassay using Lebis Insulin kit (for mice-T) (Shibayagi, Co., Ltd.) in the same manner as in the Test Example 2.

[6] = ICR mice fasted 18 hours, 500 mg/kg intravenous with simultaneous glucose 2 g/kg oral, 30 minutes, mean ± SD
[7] = ICR mice fasted 18 hours, 500 mg/kg intravenous with simultaneous glucose 2 g/kg oral, 120 minutes, mean ± SD

## CC(=O)N[C@H]1[C@H](O[C@H]2[C@@H](O)[C@@H](CO)O[C@@H](O[C@H]3[C@H](O)[C@@H](O)C(O)O[C@@H]3CO)[C@@H]2O)O[C@H](CO)[C@@H](O[C@@H]2O[C@H](CO)[C@H](O)[C@H](O)[C@H]2O)[C@@H]1O (mixture of isomers) [LNnT, lacto-N-neotetraose]
[1]
  insulin concentration during glucose loading compared with the control group (in words): increased
  Serum insulin concentration after glucose loading, 30 minutes: 21.7 ± 13.8 ng/mL
  Serum insulin concentration after glucose loading, 120 minutes: 25.9 ± 13.2 ng/mL
  Serum insulin concentration after glucose loading, Zero minute: 8.9 ± 2.0 ng/mL

## CC(=O)N[C@H]1[C@H]([C@H](O)[C@H](O)CO)O[C@@](O[C@H]2[C@@H](O)[C@@H](CO)O[C@@H](O[C@H]3[C@H](O)[C@@H](O)C(O)O[C@@H]3CO)[C@@H]2O)(C(=O)O)C[C@@H]1O (some centres unmarked) [3′-SL, 3′-sialyllactose]
[2]
  serum insulin concentration during glucose loading compared with the control group (in words): increased
  Serum insulin concentration after glucose loading, 30 minutes: 5.1 ± 1.9 ng/mL
  Serum insulin concentration after glucose loading, 120 minutes: 22.0 ± 12.5 ng/mL
  Serum insulin concentration after glucose loading, Zero minute: 6.0 ± 2.2 ng/mL

## CC(=O)N[C@H]1[C@H]([C@H](O)[C@H](O)CO)O[C@@](OC[C@H]2O[C@@H](O[C@H]3[C@H](O)[C@@H](O)[C@H](O)O[C@@H]3CO)[C@H](O)[C@@H](O)[C@H]2O)(C(=O)O)C[C@@H]1O [6′-SL, 6′-sialylactose]
[2]
  serum insulin concentration during glucose loading compared with the control group (in words): increased
  Serum insulin concentration after glucose loading, 30 minutes: 6.6 ± 3.4 ng/mL
  Serum insulin concentration after glucose loading, 120 minutes: 17.9 ± 6.3 ng/mL
  Serum insulin concentration after glucose loading, Zero minute: 5.9 ± 3.0 ng/mL

## OC[C@H]1O[C@H](O[C@@H]2[C@H](O)[C@@H](O)[C@H](O[C@H]3[C@H](O)[C@@H](O)C(O)O[C@@H]3CO)O[C@@H]2CO)[C@H](O)[C@@H](O)[C@H]1O (some centres unmarked) [Globo, globotriose]
[3]
  serum insulin concentration compared with the control group (in words): increased
  Serum insulin concentration after dosing of the individual saccharides: 23.7 ± 16.4 ng/mL

## CC(=O)N[C@H]1C(O)O[C@H](CO)[C@@H](O[C@@H]2O[C@H](CO)[C@H](O)[C@H](O)[C@H]2O)[C@@H]1O (some centres unmarked) [LacNac, N-acetyllactosamine]
[3]
  serum insulin concentration compared with the control group (in words): increased
  Serum insulin concentration after dosing of the individual saccharides: 26.8 ± 11.5 ng/mL

## CC(=O)N[C@H]1[C@H]([C@H](O)[C@H](O)CO)OC(O)(C(=O)O)C[C@@H]1O (some centres unmarked) [NeuAc, N-acetylneuraminic acid]
[1]
  insulin concentration during glucose loading compared with the control group (in words): increased
  Serum insulin concentration after glucose loading, 30 minutes: 18.5 ± 8.5 ng/mL
  Serum insulin concentration after glucose loading, 120 minutes: 30.3 ± 10.7 ng/mL
  Serum insulin concentration after glucose loading, Zero minute: 8.9 ± 7.7 ng/mL
[3]
  serum insulin concentration compared with the control group (in words): increased
  Serum insulin concentration after dosing of the individual saccharides: 68.4 ± 45.9 ng/mL
[4]; [6]
  Serum glucose concentration after glucose loading, 30 minutes: 300.9 ± 101.6 mg/dL
[4]; [7]
  Serum glucose concentration after glucose loading, 120 minutes: 197.6 ± 28.8 mg/dL
[4]; ICR mice fasted 18 hours, 500 mg/kg intravenous with simultaneous glucose 2 g/kg oral, zero minute, mean ± SD
  Serum glucose concentration after glucose loading, Zero minute: 102.6 ± 12.1 mg/dL
[4]; ICR mice, intravenous dosing
  increase of the serum glucose concentration compared with the control group (in words): suppressed
[5]; [6]
  Serum insulin concentration after glucose loading, 30 minutes: 178.3 ± 105.5 pg/mL
[5]; [7]
  Serum insulin concentration after glucose loading, 120 minutes: 384.4 ± 394.1 pg/mL
[5]; ICR mice, intravenous dosing
  serum insulin concentration after glucose loading compared with the control group (in words): increased
